Test results taken from US11358863B2, “Method and composition of humidity-controlled generation of chlorine dioxide in polymers and superabsorbent hydrogels” (priority 2017, dated 2022).

Columns and labels:
Format in all cases: cell-based
[1] = tested on: spores of Bacillus cereus; test: Microbiological validation of aqueous ClO2 using Bacillus cereus spores, serial dilutions and plate-counting on Nutrient Agar; details: dilutions 1-10^-6, NA plates 18 hours at 37° C.
[2] = tested on: mold on cotton-based parachute sleeve; test: Mold growth on moldy cotton parachute sleeve sample on Potato Dextrose Agar after ClO2 treatment; details: 10 mL of 100 ppm ClO2 solution, mixed intermittently over 20 minutes, quenched; stored at 30° C. for 5 days
Experimental: Dry reagents of HMS and chlorite ion were added to distilled de-ionized water to produce chlorine dioxide. A cotton-based parachute sleeve that is characteristically used to hold and release parachutes during jumps and to store folded parachutes after jumps was chosen for use. […] Approximately 1×1 in^2 was cut from a parachute sleeve and placed using sterile forceps into a Petri dish of sterile Potato Dextrose Agar (PDA) with a few drops of sterile water. […] A 1×1 in^2 sample was removed from the moldy dish using a sterile technique and placed in a new sterile Petri dish of PDA with sterile water. A second 1×1 in^2 sample was placed in a plastic pouch with 10 mL of 100 ppm ClO2 solution and mixed in a paddle-blender for 2 minutes intermittently over a 20 minute period. At 20 min, reductant was added to quench any excess ClO2, and the sample was placed on a fresh Petri dish of PDA. Both samples were stored at 30° C. for 5 days.

[3] = tested on: Geobacillus stearothermophilus 7953 spores; test: Clamshell package with chlorite/HMS absorbent pad in humid desiccator: autoclave sterility test strip; details: gaseous ClO2 about 25-50 ppm after 24 hours, 89% RH, 35° C.
Text: (§1) We tested a clamshell package made of plastic (commonly PLA or polyethylene terephthalate (PET)), typical of the packaging used to contain fresh produce or berries as sold in supermarkets, convenience stores, and other grocery stores. These clamshell packages have vent holes that allow the free-flow exchange of gases between the interior of the package and its surrounding environment.
A beaker with two ClO2 indicator test strips (high range, 0-500 ppm), one Geobacillus stearothermophilus 7953 autoclave sterility test strip and one Bacillus atrophaeus ethylene oxide gas sterility test strip, was placed inside the clamshell package. A piece of blue material comprising non-woven textiles and superabsorbent hydrogel, characteristic of a common disposable diaper, was cut into a 3×1 inch rectangle. Dry sodium chlorite and dry HMS were placed on spatially separate regions of the material. The blue absorbent pad was sprayed with a small amount of water, and then folded in half. The entire clamshell package (containing the indicator strips, microbial test strips, and blue pad with reactive reagents) was placed inside a […] The entire desiccator assembly, containing the salt solution in the bottom and the clamshell package above the solution on a perforated platform, was placed inside an incubator at 35° C., which re-equilibrated and increased RH to 89%. […]

[4] = tested on: Bacillus atrophaeus spores; test: Clamshell package with chlorite/HMS absorbent pad in humid desiccator: ethylene oxide gas sterility test strip; details: gaseous ClO2 about 25-50 ppm after 24 hours, 89% RH, 35° C.
Text: as §1
A beaker with two ClO2 indicator test strips (high range, 0-500 ppm), one Geobacillus stearothermophilus 7953 autoclave sterility test strip and one Bacillus atrophaeus ethylene oxide gas sterility test strip, was placed inside the clamshell package. A piece of blue material comprising non-woven textiles and superabsorbent hydrogel, characteristic of a common disposable diaper, was cut into a 3×1 inch rectangle. Dry sodium chlorite and dry HMS were placed on spatially separate regions of the material. The blue absorbent pad was sprayed with a small amount of water, and then folded in half. The entire clamshell package (containing the indicator strips, microbial test strips, and blue pad with reactive reagents) was placed inside a desiccator charged with […] The entire desiccator assembly, containing the salt solution in the bottom and the clamshell package above the solution on a perforated platform, was placed inside an incubator at 35° C., which re-equilibrated and increased RH to 89%. […]

[O][Cl+][O-] [ClO2, chlorine dioxide]
growth of B. cereus from inoculated protective garment fabric ([1]; 10 microliter inoculum on 1×1 in^2 fabric, 100 ppm ClO2 solution, paddle-blender 15 min, quenched): no discernible growth | colonies on NA plates (plate-counts) ([1]; B. cereus spore inoculum in 10 mL of 100 ppm aqueous ClO2 solution, paddle-stomacher 15 min, quenched with reductant): no discernible colonies | mold growth on cotton sleeve sample and PDA [2]: no signs of mold growth | microbial growth of G. stearothermophilus indicator test strip [3]: negative for microbial growth | microbial growth of B. atrophaeus indicator test strip [4]: negative for microbial growth
